Where two headings read alike, the source gives them in different places.
Columns and labels:
Assay type in all cases: cell-based, human
NSCLC cell line H1299 = assay: CNDAC combinations (alamar blue, Calcusyn Combination Index); settings: for Combination Index at ED75, CNDAC pretreatment / Combination Index at ED90, CNDAC pretreatment / Combination Index at ED50, CNDAC pretreatment / Combination Index at ED50, Other (named agent) pretreatment / Combination Index at ED75, Other (named agent) pretreatment / Combination Index at ED90, Other (named agent) pretreatment / Combination Index at ED50, Concomitant / Combination Index at ED75, Concomitant / Combination Index at ED90, Concomitant: named agent in combination with CNDAC; for Combination Index at ED75, CNDAC pretreatment / Combination Index at ED90, CNDAC pretreatment / Combination Index at ED50, CNDAC pretreatment: CNDAC 24 h then other agent 72 h; for Combination Index at ED50, CNDAC pretreatment: C.I. <1 synergistic, 1 additive, >1 antagonistic; for Combination Index at ED50, Other (named agent) pretreatment / Combination Index at ED75, Other (named agent) pretreatment / Combination Index at ED90, Other (named agent) pretreatment: named agent 24 h then CNDAC 72 h; for Combination Index at ED50, Concomitant / Combination Index at ED75, Concomitant / Combination Index at ED90, Concomitant: simultaneous treatment 72 h
Experimental: Experiments in the NSCLC cell lines H1299 or RERF-LC-MA were performed in 96-well plates, with cells seeded at a density of 3,000/well, in DMEM containing 10% (v/v) FCS. Stock solutions of all drugs were made up in dimethylsulfoxide (DMSO), with the exception of gemcitabine, which was dissolved in 0.9% (w/v) sterile saline solution.
For experimental assessment of potential synergistic interactions, the concomitant treatment regime involved simultaneous treatment of cells with CNDAC and the other agent under investigation for 72 h, alongside suitable controls of cells treated with the individual compounds alone for 72 hr. In the sequential treatment regimes, one drug was added to the cells 2 h after plating, and left for 24 h. Media was then aspirated, replaced with fresh media containing the second drug and incubated for 72 h. The two individual treatment controls for the sequential treatment regime involved substituting one of the drug treatments with drug-free media. […] Drug interactions were analysed using the Calcusyn software package (BioSoft, Cambridge, U.K.) described below.

IGROV1 = assay: MTT growth inhibition assay, single agent; settings: read-out: Antiproliferative effects IC50s (MTT assay)
Experimental: (§1) All cell lines were obtained from the ATCC (Rockville, Md.). Cells were grown as monolayers in RPMI medium supplemented with 10% fetal calf serum (Invitrogen, Cergy-Pontoise, France), 2 mM glutamine, 100 units/ml penicillin and 100 μg/ml streptomycin. All cells were split twice a week using trypsin/EDTA (0.25% and 0.02%, respectively; Invitrogen, Cergy-Pontoise, France) and seeded at a concentration of 2.5×10^4 cells/ml. All cell lines were tested regularly for Mycoplasma contamination by PCR using a Stratagene kit (La Jolla, Calif.).
(§2) The MTT assay was carried out as described previously (Hansen M B, Nielsen S E, Berg K. Re-examination and further development of a precise and rapid dye method for measuring cell growth/cell kill. J Immunol Methods. 1989 May 12; 119(2):203-10). In brief, cells were seeded in 96-well tissue culture plates at a density of 2×10^3 cells/well. Cell viability was determined after a 120-hour incubation, by the calorimetric conversion of yellow, water-soluble tetrazolium MTT (3-[4,5-dimethylthiazol-2-yl]-2,5-diphenyltetrazolium bromide; Sigma, Saint-Quentin Fallavier, France), into purple, water-insoluble formazan. This reaction is catalyzed by mitochondrial dehydrogenases and is used to estimate the relative number of viable cells (Mosmann, T, Rapid calorimetric assay for cellular growth and survival: application to proliferation and cytotoxicity assays. J Immunol Methods. 1983 Dec. 16; 65 (1-2):55-63). Cells were incubated with 0.4 mg/ml MTT for 4 hours at 37° C. After incubation, the supernatant was discarded, the cell pellet was resuspended in 0.1 ml of DMSO and the absorbance was measured at 560 nm using a microplate reader (Dynatech, Michigan). Wells with untreated cells or with drug-containing medium without cells were used as positive and negative controls, respectively. Growth inhibition curves were plotted as a percentage of untreated control cells.
(§3) The cells were seeded at 2×10^3 cells/well in 96-well plates and treated 24 hours later with increasing concentrations of CYC682. After incubation times of 1 hour, 24 hours or 48 hours, the cells were washed and post-incubated in drug-free medium for 72 hours. Growth inhibition was then determined by the MTT assay.

MCF7 = assay: MTT growth inhibition assay, single agent; settings: 24 hours exposure, read-out: Antiproliferative effects IC50s (MTT assay)
Experimental: as §1, §2, §3

HT29 = assay: MTT growth inhibition assay, single agent; settings: read-out: Antiproliferative effects IC50s (MTT assay)
Experimental: as §1, §2, §3

HOP92 = assay: MTT growth inhibition assay, single agent; settings: read-out: Antiproliferative effects IC50s (MTT assay)
Experimental: as §1, §2, §3

COLO205 = assay: MTT growth inhibition assay, single agent; settings: read-out: Antiproliferative effects IC50s (MTT assay)
Experimental: as §1, §2, §3

HCT116 = assay: MTT growth inhibition assay, single agent; settings: read-out: Antiproliferative effects IC50s (MTT assay)
Experimental: as §1, §2, §3

HCC2998 = assay: MTT growth inhibition assay, single agent; settings: read-out: Antiproliferative effects IC50s (MTT assay)
Experimental: as §1, §2, §3

MDA-MB-435 = assay: MTT growth inhibition assay, single agent; settings: 24 hours exposure, read-out: Antiproliferative effects IC50s (MTT assay)
Experimental: as §1, §2, §3

OVCAR1 = assay: MTT growth inhibition assay, single agent; settings: 24 hours exposure, read-out: Antiproliferative effects IC50s (MTT assay)
Experimental: as §1, §2, §3

HOP62 = assay: MTT growth inhibition assay, single agent; settings: read-out: Antiproliferative effects IC50s (MTT assay)
Experimental: as §1, §2, §3

## CCC1=C[C@@H]2CN(C1)Cc1c([nH]c3ccccc13)[C@@](C(=O)OC)(c1cc3c(cc1OC)N(C)[C@H]1[C@@](O)(C(=O)OC)[C@H](OC(C)=O)[C@]4(CC)C=CCN5CC[C@]31[C@@H]54)C2 [Vinorelbine]
NSCLC cell line H1299; H1299, all three of the treatment regimes tested
  Interaction with CNDAC (in words): synergy
NSCLC cell line H1299; H1299
  Combination Index at ED75, CNDAC pretreatment: 0.67
  Combination Index at ED90, CNDAC pretreatment: 0.67
  Combination Index at ED50, CNDAC pretreatment: 1.04
  Combination Index at ED50, Other (named agent) pretreatment: 0.60
  Combination Index at ED75, Other (named agent) pretreatment: 0.56
  Combination Index at ED90, Other (named agent) pretreatment: 0.66
  Combination Index at ED50, Concomitant: 0.63
  Combination Index at ED75, Concomitant: 0.97
  Combination Index at ED90, Concomitant: 2.25

## N.N.[Cl][Pt][Cl] [Cisplatin, cis-diamminedichlorplatinum (II)]
IGROV1; 24 hours exposure
  IC50: 26 ± 6 µM
MCF7
  IC50: 32 ± 2 µM
HT29; 24 hours exposure
  IC50: 25 ± 3 µM
HOP92; 24 hours exposure
  IC50: 4.4 ± 0.4 µM
COLO205; 24 hours exposure
  IC50: 9.5 ± 2.5 µM
HCT116; 24 hours exposure
  IC50: 9.2 ± 0.9 µM
HCC2998; 24 hours exposure
  IC50: 25 ± 5 µM
MDA-MB-435
  IC50: 13 ± 2.6 µM
OVCAR1
  IC50: 12.1 ± 3.93 µM
HOP62; 24 hours exposure
  IC50: 9.3 ± 0.9 µM
NSCLC cell line H1299; H1299, concomitant treatment
  Interaction with CNDAC at ED50 (in words): weak synergy
NSCLC cell line H1299; H1299, pre-treatment with named agent
  Interaction with CNDAC at ED50 (in words): synergy
NSCLC cell line H1299; combination with CNDAC, regime not specified
  Interaction with CNDAC (in words), summary of Table 3: synergistic drug interactions
NSCLC cell line H1299; H1299
  Combination Index at ED75, CNDAC pretreatment: 1.5
  Combination Index at ED90, CNDAC pretreatment: 13.68
  Combination Index at ED50, CNDAC pretreatment: 1.16
  Combination Index at ED50, Other (named agent) pretreatment: 0.65
  Combination Index at ED75, Other (named agent) pretreatment: 0.93
  Combination Index at ED90, Other (named agent) pretreatment: 1.96
  Combination Index at ED50, Concomitant: 0.77
  Combination Index at ED75, Concomitant: 1.65
  Combination Index at ED90, Concomitant: 7.56

## Nc1ccn([C@@H]2O[C@H](CO)[C@H](O)[C@@H]2O)c(=O)n1 [Ara-C, 4-amino-1-[(2R,3S,4R,5R)-3,4-dihydroxy-5-(hydroxymethyl)oxolan-2-yl]pyrimidin-2-one]
IGROV1; Homo sapiens, IGROV-1, 24 hours exposure
  IC50: 89 ± 21 µM
MCF7; Homo sapiens
  IC50: > 300 µM
HT29; Homo sapiens, HT-29, 24 hours exposure
  IC50: 130 ± 40 µM
HOP92; Homo sapiens, HOP-92, 24 hours exposure
  IC50: 1.3 ± 0.3 µM
COLO205; Homo sapiens, COLO 205, 24 hours exposure
  IC50: 28 ± 8 µM
HCT116; Homo sapiens, HCT-116, 24 hours exposure
  IC50: 1.2 ± 0.4 µM
HCC2998; Homo sapiens, HCC 2998, 24 hours exposure
  IC50: 3.7 ± 0.5 µM
MDA-MB-435; Homo sapiens
  IC50: 38 ± 9 µM
OVCAR1; Homo sapiens
  IC50: > 300 µM
HOP62; Homo sapiens, HOP-62, 24 hours exposure
  IC50: 6.3 ± 2.8 µM

From US20090274773A1, “ANTIPROLIFERATIVE COMBINATION COMPRISING CYC-682 AND A CYTOTOXIC AGENT” (Cyclacel Limited, priority 2005, published 2009)
